# US12258377B2 (Scancell Limited, priority 2012, dated 2025)
# Square brackets hold non-standard residues; d marks the D form. Ends that are not written are not given here. Cit = NC(=O)NCCC[C@H](N)C(=O)O
# Key:
# splenocytes [1] = assay: Ex vivo elispot assay on splenocytes of immunised HLA-DR1 / HLA-A2/DR1 (HHDII/DR1) transgenic mice; assay type: in vivo
# Protocol: (§1) C57BL/6 mice (Charles River, UK), HLA-DR4 mice (Taconic, USA), HHDII mice (Pasteur institute, France) and HHDII/DRI mice (Pasteur institute, France) were used, aged between 8 and 12 weeks, and cared for by the staff at Nottingham Trent University. All work was carried out under a Home Office project license. Peptides were dissolved in 10% Dimethylformamide to 1 mg/ml and then emulsified (a series of dilutions) with different adjuvants: CpG and MPLA 6 μg/mouse of each (Invivogen, UK), Incomplete Freund's […] (Sigma, UK), and GMCSF 10 μg/mouse (Peprotech, UK). Peptides (25 μg/mouse) were injected subcutaneously at the base of the tail. DNA (1 μg/mouse) was coated onto 1.0 μm gold particles (BioRad, Hemel Hempstead, UK) using the manufacturer's instructions and administered intradermally by genegun (BioRad). Homspera (10 nM/mouse) (PeptideSynthetics, UK) was injected intradermally with genegun immunisation. Mice were immunized at either day 0 for peptide immunisation or days, 0, 7, and 14 for peptide and genegun immunisation. Spleens were removed for analysis at day 14 for peptide and day 20 for peptide or genegun immunisation unless stated otherwise. 400 μg Anti-CD25 antibody (PC61) was administered i.p. in saline 3 days prior to the immunisation. 200 μg Anti-CTLA-4 antibody (UC 10-4F, 10-11) was administered i.p. in saline at day 7 and 14 with either genegun or peptide immunisation.
# (§2) Elispot assays were performed using murine IFNγ, IL-17 and IL-10 capture and detection reagents according to the manufacturer's instructions (Mabtech, Sweden). In brief, anti-IFNγ, IL-17 and IL-10 antibodies were coated onto wells of 96-well Immobilin-P plate. Synthetic peptides (at a variety of concentrations) and 5×10^5 per well splenocytes were added to the wells of the plate in triplicate. Tumour target cells were added where relevant at 5×10^4/well in triplicate and plates incubated for 40 hrs at 37° C. After incubation, captured IFNγ, […], IL-17 and IL-10 were detected by biotinylated anti-IFNγ, IL-17 and IL-10 antibodies and developed with a strepatavidin alkaline phosphatase and chromogenic substrate. Spots were analysed and counted using an automated plate reader (Cellular Technologies Ltd). Functional avidity was calculated as the concentration mediating 50% maximal effector function using a graph of effector function versus peptide concentration.
# splenocytes [2] = assay: Ex vivo elispot assay on splenocytes of immunised C57B1 mice; assay type: in vivo, C57BL/6 mice; settings: combination of 3 citrullinated peptides (3×10 μg) with CpG and MPLA; day 14; C57B1/6 mice
# Protocol: as §1, §2
# splenocytes [3] = assay: Ex vivo elispot assay on splenocytes of immunised HLA-DR4 transgenic mice; assay type: in vivo; settings: for IFNg elispot response to citrullinated peptide over unmodified peptide or background control: citrullinated peptides 25 ug s.c. in CpG and MPLA, FIG. 34; for IL-10 elispot responses: against wild type and citrullinated peptides; for IFNγ elispot response to wild type peptide, mean / IFNγ elispot response to citrullinated peptide, mean: day 14 splenocytes; for IFNγ elispot response against vimentin 28-49 triple, double and single citrullinated peptides: peptide immunisation, FIG. 11
# Protocol: as §1, §2
# PBMC = assay: Proliferation assay of PBMC from cancer patients; assay type: cell-based, human; settings: PBMC stimulated with 10 μg/ml peptide for 4, 7 and 11 days, 3H-thymidine
# Protocol: PBMC were isolated from freshly drawn heparinised blood by Ficol-Hypaque (Sigma) gradient centrifugation. PBMC (1.5×10^6 cells/well) were stimulated with single peptides (final concentration 10 μg/ml) in RPMI containing 5% pooled autologous human serum, 2 mM glutamine, 20 mM HEPES and Penicillin-streptomycin (1%) in a final volume of 2 ml. Stimulation with purified protein derivative, PPD (final concentration 10 μg/ml) served as a positive control for the proliferative capacity of PBMC. As a negative control PBMC were incubated with medium alone. The PBMC were cultured at 37° C. in an atmosphere of 5% CO2 for 4, 7 and 11 days. To assess proliferation at these times points 100 μl in triplicate from each culture was aliquoted into a round bottom well of a 96 well plate and ^3H-thymidine added (0.0185 MBq/well) and incubated at 37° C. for a further 8 hours. The cultures were harvested onto unifilter plates and incorporation of ^3H-thymidine was determined by β-scintillation counting. The results were assessed by calculating the stimulation index (SI) as the ratio of the mean of counts per minute (cpm) of epitope-stimulated to the mean of unstimulated cultures. The proliferative assay was considered positive when SI >2.5.
# splenocytes [4] = assay: Ex vivo elispot assay on splenocytes of immunised HLA-DR1 / HLA-A2/DR1 (HHDII/DR1) transgenic mice; assay type: in vivo; settings: combination of 3 citrullinated peptides (3×10 μg) with CpG and MPLA; day 14; HLA-DR1 transgenic mice
# B16F1-DR4 cells = assay: Tumour challenge with B16F1-DR4 cells; assay type: in vivo, HLA-DR4 transgenic mice; settings: peptide 25 μg in CpG and MPLA s.c. or DNA via gene gun, days 4, 11, 18; versus unimmunised control
# Protocol: For tumour challenge experiments mice were challenged with 2.5×10^4 B16 HHDII NYESO/TAP2 siβ2m 1F10 cells or B16 DR4 2E7 cells subcutaneously on the right flank 3 days prior to primary immunisation and then were immunised as above. Anti-IFNγ antibody (300 μg/dose), anti-IL-17 antibody (200 μg/dose) and anti-HLA-DR antibody (300 μg/dose) were administered i.p. in saline at days 2, 7, 11 and 14 post tumour implant. Anti-CD4 antibody (500 μg/dose) was administered i.p.in saline at days 2 and 8 post tumour implant. Tumour growth was monitored at 3-4 days intervals and mice were humanely euthanized once tumour reached ≥10 mm in diameter.
# [5] = 25 μg in MPLA and CPG s.c. days 0, 7, 14, HLA-DR1 transgenic mice
# [6] = 25 μg peptide with CpG and MPLA day 0, day 14
# [7] = 25 μg peptide with CpG and MPLA day 0, day 14, peptide 5 μM
# [8] = 25 μg peptide with CpG and MPLA day 0, peptide 5 μM
# [9] = 25 μg peptide with CpG and MPLA day 0, day 14, recall peptide not specified
substance,measurement,setting,value
AQKKLKLVRTSPEYGMP,immune response after immunisation,splenocytes [1]; HLA-DR1 transgenic mice,failed to stimulate any immune response
AQKKLKLVcitTSPEYGMP (AQKKLKLV[Cit]TSPEYGMP),"IFNγ/IL-17 response to the citrullinated peptide, mean",splenocytes [1]; [5],200 spots/million splenocytes
same,IFNγ/IL-17 response to the wild type peptide,splenocytes [1]; [5],no response
same,response in presence of MHC class II blocking mab,"splenocytes [1]; IFNγ elispot, HLA-A2/DR1 mice",blocked
EAENTLQSFRQDVDNASLA [Vimentin 20],"IL-17 response, screening of citrullinated 20 mer peptides",splenocytes [2],~400 spots/million splenocytes
EKLQEEMLQREEAENTLQS [Vimentin 19],"IL-17 response, screening of citrullinated 20 mer peptides",splenocytes [2],~400 spots/million splenocytes
KLATEYMSSARSLSSEEK [ING4 44-58],IFNg elispot response to citrullinated peptide over unmodified peptide or background control,splenocytes [3],significant responses
LPNFSSLNLRETNLDSLPL [wild type vim 415-433 peptide],patients showing a proliferative response (SI >2.5),PBMC,8/11
same,patients showing a proliferative response (SI >2.5),PBMC; listed as unmodified vim 415,Six of eleven
same,"IL-10 response, mean","splenocytes [3]; 25 μg peptide in MPLA and CPG s.c., day 14, FIG. 30",580 spots/million splenocytes
same,IL-10 elispot responses,splenocytes [3]; [6],No significant IL-10 responses
same,"IL-2 elispot response to citrullinated peptide, mean",splenocytes [3]; [7],weak
same,"IL-17 elispot response to wild type peptide, mean",splenocytes [3]; [7],failed to stimulate a significant IFNγ or IL-17 response
same,"IFNγ elispot response to wild type peptide, mean",splenocytes [3]; [8],failed to stimulate a significant IFNγ or IL-17 response
RAPFDLFENRKKKNN [HSP90 346-360],IFNg elispot response to citrullinated peptide over unmodified peptide or background control,splenocytes [3],significant responses
RKKLSELLRYYTSASGDEMVSL [HSP90 456-477],IFNg elispot response to citrullinated peptide over unmodified peptide or background control,splenocytes [3],significant responses
RLRSSVPGVRLLQDSVDFS [Vimentin 10],"IL-17 response, screening of citrullinated 20 mer peptides",splenocytes [4],350 spots/million splenocytes
RSYVTTSTRTYSLGSALRPSTS [wild type vim 28-49],patients showing a proliferative response (SI >2.5),PBMC,Two of eight
same,patients showing a proliferative response (SI >2.5),PBMC; listed as Wild type vim 28-49 peptide,2/11
same,IL-10 elispot responses,splenocytes [3]; [6],No significant IL-10 responses
same,IL-2 elispot responses,splenocytes [3]; [9],weak
same,IL-17 elispot responses,splenocytes [3]; [9],weak
same,"IFNγ elispot response to citrullinated peptide, mean",splenocytes [3]; [8],"1,100 /million splenocytes"
same,"IFNγ elispot response to wild type peptide, mean",splenocytes [3]; [8],700 /million splenocytes
same,anti-tumour response / survival,B16F1-DR4 cells,anti-tumour response that almost reached significance
SAVRLRSSVPGVR [wild type vim 65-77 peptide],patients showing a proliferative response (SI >2.5),PBMC; listed as vim 65,Four out of eight
same,patients showing a proliferative response (SI >2.5),PBMC; listed as vim 65-77,4/9
same,"IL-17 elispot response to citrullinated peptide, mean",splenocytes [3]; [7],weak
same,"IL-17 elispot response to wild type peptide, mean",splenocytes [3]; [7],weak
same,"IFNγ elispot response to citrullinated peptide, mean",splenocytes [3]; [8],weak
same,"IFNγ elispot response to wild type peptide, mean",splenocytes [3]; [8],weak
VPAYFNDAQRQATKDA [BiP 172-186],IFNg elispot response to citrullinated peptide over unmodified peptide or background control,splenocytes [3],significant responses
"Vim 28-49 only citrullinated at position 28: vimentin 28-49 peptide with citrulline only at position 28 ([Cit]SYVTTSTRTYSLGSALRPSTS; UniProt P08670 28-49, looked up, fragment)","IFNγ elispot response against vimentin 28-49 triple, double and single citrullinated peptides",splenocytes [3],gave a response to the tri-citrullinated peptide and the Vim 45 citrullinated peptide
YSCVGVFKNGRVEII [BiP 39-53],IFNg elispot response to citrullinated peptide over unmodified peptide or background control,splenocytes [3],significant responses
"mouse vim 415 cit: murine vimentin 415-433 citrullinated peptide (LPTFSSLNL[Cit]ETNLESLPL; UniProt P20152 415-433, looked up, fragment)",influence of natural Treg depletion (anti-CD25 mAb) on the response,"splenocytes [3]; 25 μg peptide day 0, PC61 three days before, IFNγ elispot day 14",no influence on the frequency or the avidity of the response
"vim 28 and 36 citrullinated peptide: vimentin 28-49 peptide citrullinated at positions 28 and 36 ([Cit]SYVTTST[Cit]TYSLGSALRPSTS; UniProt P08670 28-49, looked up, fragment)","IFNγ elispot response against vimentin 28-49 triple, double and single citrullinated peptides",splenocytes [3],responded to the triple
